Source: patent publication US8183371B2, “Pyrazines as delta opioid receptor modulators” (Janssen Pharmaceutica NV, priority 2009, dated 2012)
Where two headings read alike, the source gives them in different places.

Key:
delta opioid receptor = target: T1, delta opioid receptor (Rattus norvegicus, UniProt P33533); test: Rat brain delta opioid receptor binding assay
T1 construct: from tissue; host or cells: forebrain of male Wistar rats
Protocol: Procedure: Male, Wistar rats (150-250 g, VAF, Charles River, Kingston, N.Y.) were killed by CO2, and their brains were removed and placed immediately in ice cold Tris HCl buffer (50 mM, pH 7.4). The forebrains were separated from the remainder of the brain by a coronal transection, beginning dorsally at the colliculi and passing ventrally through the midbrain-pontine junction. After dissection, the forebrains were homogenized in Tris buffer in a Teflon®-glass homogenizer. The homogenate was diluted to a concentration of 1 g of forebrain tissue per 80 mL Tris and centrifuged at 39,000×g for 10 min. The pellet was resuspended in the same volume of Tris buffer containing 5 mM MgCl2 with several brief pulses from a Polytron homogenizer. This particulate preparation was used for the delta opioid binding assays. Following incubation with the delta selective peptide ligand ˜4 nM [^3H]DPDPE or 0.25 nM [^3H]naltrindole at 25° C. for 2.5 h in a 96-well plate with total volume of 1 mL, the plate contents were filtered through Wallac filtermat B sheets on a Tomtec 96-well harvester. The filters were rinsed three times with 2 mL of 10 mM HEPES (pH 7.4), and dried in a 650 W microwave oven for 1.75 min twice. To each sample area 2×50 μL of Betaplate Scint scintillation fluid (LKB) was added and the radioactivity was quantified on a LKB (Wallac) 1205 BetaPlate liquid scintillation counter.
Analysis: The data from the scintillation counter were used to calculate either the % inhibition compared to control binding (when only a single concentration of test compound was evaluated) or a Ki value (when a range of concentrations was tested). Percent inhibition was calculated as: [(total dpm−test compound dpm)/(total dpm−nonspecific dpm)]*100. Kd and Ki values were calculated using GraphPad PRISM data analysis program.

δ-opioid receptor = target: T2, δ-opioid receptor (Mus musculus, UniProt P32300); test: [35S]GTPγS binding assay in NG108-15 cell membranes (delta opioid functional assay); assay type: biochemical; details: for GTPγS δ-RelEfficacy @200 nM: 200 nM compound, relative to calculated max of SNC80 dose response
T2 construct: NG108-15 cell membranes were purchased from Applied Cell Sciences (Rockville, Md.); host or cells: NG108-15 cell membranes (purchased)
Protocol: Methods: NG108-15 cell membranes were purchased from Applied Cell Sciences (Rockville, Md.). 5 mg/mL of membrane protein was suspended in 10 mM TRIS-HCl pH 7.2, 2 mM EDTA, 10% sucrose. Membranes were maintained at 4-8° C. A 1 mL volume of membranes was added into 10 mL cold binding assay buffer. The assay buffer contained 50 mM Tris, pH 7.6, 5 mM MgCl2, 100 mM NaCl, 1 mM DTT and 1 mM EGTA. The membrane suspension was homogenized twice with a Polytron, and centrifuged at 3000 rpm for 10 min. The supernatant was then centrifuged at 18,000 rpm for 20 min. Ten mL of assay buffer was added into the pellet containing tube. The pellet and buffer were mixed with a Polytron.
Incubation procedure: The pellet membranes (75 μg/mL) were preincubated with SPA beads (10 mg/mL) at 25° C. for 45 min in the assay buffer. The SPA beads (5 mg/mL) coupled with membranes (37.5 μg/mL) were then incubated with 0.1 nM [^35S]GTPγS in the same Tris buffer containing 100 μM GDP in total volume of 200 μL. 200 nM of receptor agonists was used to stimulate [^35S]-GTPγS binding. The basal binding was tested in the absence of agonists and non-specific binding was tested in the presence of 10 μM unlabeled GTPγS.
Data % of Basal=(stimulated−non specific)*100/(basal−non specific). Relative Efficacy of a compound at 200 nM=(% of Basal of test compound at 200 nM)/(Calculated Max of SNC80 dose response. Curve in prism).

[1] = [3H]naltrindole ligand, read-out: δ-binding (Naltrindole ligand) Ki
[2] = read-out: GTPγS δ-opioid receptor EC50
[3] = rat forebrain membranes, ~4 nM [3H]DPDPE, read-out: δ-binding (DPDPE ligand) Ki

T2 sequence (P32300 whole entry): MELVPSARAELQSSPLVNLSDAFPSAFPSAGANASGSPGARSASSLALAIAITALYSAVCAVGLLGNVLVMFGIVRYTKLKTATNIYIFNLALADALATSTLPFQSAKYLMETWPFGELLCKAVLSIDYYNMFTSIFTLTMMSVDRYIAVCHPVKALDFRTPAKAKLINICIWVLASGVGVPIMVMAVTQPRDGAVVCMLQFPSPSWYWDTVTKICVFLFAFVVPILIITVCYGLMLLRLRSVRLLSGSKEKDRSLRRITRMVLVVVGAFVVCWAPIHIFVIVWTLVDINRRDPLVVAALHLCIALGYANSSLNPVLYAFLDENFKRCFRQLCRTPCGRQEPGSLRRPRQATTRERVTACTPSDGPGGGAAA
T1 sequence (P33533 whole entry): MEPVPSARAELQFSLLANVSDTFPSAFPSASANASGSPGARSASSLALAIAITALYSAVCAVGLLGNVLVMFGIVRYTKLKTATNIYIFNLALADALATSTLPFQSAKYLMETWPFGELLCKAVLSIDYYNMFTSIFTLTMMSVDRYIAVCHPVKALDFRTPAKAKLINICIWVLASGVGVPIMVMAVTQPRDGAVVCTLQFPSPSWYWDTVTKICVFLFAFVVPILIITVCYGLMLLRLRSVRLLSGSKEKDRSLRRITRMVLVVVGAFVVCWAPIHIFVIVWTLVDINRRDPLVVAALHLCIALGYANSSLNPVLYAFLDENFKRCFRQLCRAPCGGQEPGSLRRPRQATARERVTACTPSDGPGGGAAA

Row | SMILES | Ki (delta opioid receptor; [1]) | GTPγS δ-opioid receptor Rel Efficacy (δ-opioid receptor) | EC50 (δ-opioid receptor; [2]) | Ki (delta opioid receptor; [3]) | GTPγS δ-RelEfficacy @200 nM (δ-opioid receptor) | EC50 (δ-opioid receptor) | Ki (delta opioid receptor)
1 | COc1ccc(Oc2nc(-c3cncnc3)cnc2NC[C@H](C)N)cc1 [Cpd 20] | 0.6 nM | 1.0287 | 50.5 nM |  | 0.6890 |  | 
2 | N#Cc1cncc(-c2cnc(NC[C@@H]3CCCN3)c(Oc3ccc4occc4c3)n2)c1 [Cpd 39] | 0.2 nM | 1.0736 | 4.6 nM |  | 1.0765 |  | 
3 | COc1ccc(Oc2nc(-c3cncnc3)cnc2NC[C@@H]2CCCN2)c(F)c1 [Cpd 9] |  | 1.1022 | 281 nM | 1.2 nM |  |  | 
4 | COc1ccc(Oc2nc(-c3cncc(C#N)c3)cnc2N[C@H]2CC[C@@H](N)CC2)cc1 [Cpd 35] |  | 1.2053 |  |  | 0.4157 | 95.2 nM | 0.4 nM
5 | N#Cc1cncc(-c2cnc(NC[C@@H]3CCCN3)c(Oc3ccc(OC(F)(F)F)cc3)n2)c1 [Cpd 36] | 1.4 nM | 0.9719 | 29.7 nM |  | 0.5598 |  | 
6 | COc1ccc(Oc2nc(-c3cncnc3)cnc2NCC2(N)CCCC2)cc1 [Cpd 22] | 2.9 nM |  |  |  | 0.2384 |  | 
7 | CC(=O)Nc1cccc(Oc2nc(-c3cncnc3)cnc2NC[C@@H]2CCCN2)c1 [Cpd 13] | 4 nM |  |  |  | 0.0800 |  | 
8 | N#Cc1cncc(-c2cnc(NC[C@@H]3CCCN3)c(Oc3cccc(Cl)c3)n2)c1 [Cpd 42] |  | 1.1894 | 84.4 nM |  | 0.7111 |  | 
9 | N#Cc1cncc(-c2cnc(NC[C@@H]3CCCN3)c(Oc3ccc4[nH]ccc4c3)n2)c1 [Cpd 40] |  | 1.1190 | 39.3 nM |  | 0.6606 |  | 
10 | COc1ccc(Oc2nc(-c3cncc(C#N)c3)cnc2NC[C@H](C)N)cc1 [Cpd 19] | 0.3 nM |  |  |  |  |  | 
11 | COc1ccc(Cc2nc(-c3cncnc3)cnc2NC[C@@H]2CCCN2)cc1 [Cpd 17, [3-(4-Methoxy-benzyl)-5-pyrimidin-5-yl-pyrazin-2-yl]-pyrrolidin-2-(S)-ylmethyl-amine] | 19.9 nM |  |  |  | 0.1065 |  | 
12 | COc1ccc(Cc2nc(-c3cccnc3)cnc2NC[C@@H]2CCCN2)cc1 [Cpd 16] | 15 nM | 0.3985 | 7320 nM |  |  |  | 
13 | N#Cc1cncc(-c2cnc(NC[C@@H]3CCCN3)c(Oc3cccc(O)c3)n2)c1 [Cpd 38, 5-{6-(3-Hydroxy-phenoxy)-5-[(pyrrolidin-2-(S)-ylmethyl)-amino]-pyrazin-2-yl}-nicotinonitrile] | 0.086 nM | 1.1104 | 66.6 nM |  | 0.6472 |  | 
14 | COc1ccc(Oc2nc(-c3cncc(C#N)c3)cnc2N2CCNCC2)cc1 [Cpd 30, 5-[3′-(4-Methoxy-phenoxy)-3,4,5,6-tetrahydro-2H-[1,2′]bipyrazinyl-5′-yl]-nicotinonitrile] | 0.1 nM | 1.1345 | 111 nM |  | 0.5999 |  | 
15 | COc1ccc(Oc2nc(-c3cncc(C#N)c3)cnc2NC[C@@H]2CCCN2)c(F)c1 [Cpd 26] | 0.2 nM | 1.0534 | 27.1 nM |  | 1.0180 |  | 
16 | Cc1ccc(Oc2nc(-c3cncc(C#N)c3)cnc2NC[C@@H]2CCCN2)cn1 [Cpd 28] | 13.2 nM |  |  |  | 0.1492 |  | 
17 | COc1ccc(Oc2nc(-c3cncc(C#N)c3)cnc2NCC2(N)CCCC2)cc1 [Cpd 21] | 0.6 nM |  |  |  | 0.2481 |  | 
18 | COc1ccc(Oc2nc(-c3cncc(C#N)c3)cnc2N[C@H]2CC[C@H](N)CC2)cc1 [Cpd 34] |  |  |  |  |  |  | 0.7 nM
19 | COc1ccc(Oc2nc(-c3cncc(C#N)c3)cnc2NC[C@@H]2CCCN2)cc1F [Cpd 25] | 0.2 nM | 1.0387 | 31.3 nM |  | 0.9130 |  | 
20 | c1ncc(-c2cnc(NC[C@@H]3CCCN3)c(Oc3ccc4c(c3)OCO4)n2)cn1 [Cpd 7] |  |  |  | 491 nM |  |  | 
21 | N#Cc1cncc(-c2cnc(NC[C@@H]3CCCN3)c(Oc3ccccc3Cl)n2)c1 [Cpd 41] |  | 1.2922 | 298 nM |  | 0.3049 |  | 
22 | COc1ccc(Cc2nc(-c3cncc(C#N)c3)cnc2NC[C@@H]2CCCN2)cc1 [Cpd 23] | 2.4 nM |  |  |  | 0.1174 |  | 
23 | COc1ccc(Oc2nc(-c3cccnc3)cnc2N2CCNCC2)cc1 [Cpd 31] | 0.3 nM | 1.0012 | 8.1 nM |  | 0.7579 |  | 

Further lines, with some results ahead:

Row | Ki (delta opioid receptor; [1]) | GTPγS δ-opioid receptor Rel Efficacy (δ-opioid receptor) | EC50 (δ-opioid receptor; [2]) | Ki (delta opioid receptor; [3]) | GTPγS δ-RelEfficacy @200 nM (δ-opioid receptor) | SMILES | EC50 (δ-opioid receptor) | Ki (delta opioid receptor)
24 | 4.3 nM |  |  |  |  | c1ncc(-c2cnc(NC[C@@H]3CCCN3)c(Oc3ccc4c(c3)CCO4)n2)cn1 [Cpd 33] |  | 
25 |  | 1.0984 | 349 nM | 2.7 nM |  | COc1ccc(Oc2nc(-c3cncnc3)cnc2NC[C@@H]2CCCN2)cc1 [Cpd 5] |  | 
26 | 1.1 nM |  |  |  | 0.2150 | Clc1ccc(Oc2nc(-c3cncnc3)cnc2NC[C@@H]2CCCN2)cc1 [Cpd 10] |  | 
27 | 1.8 nM |  |  |  | 0.2102 | Clc1cccc(Oc2nc(-c3cncnc3)cnc2NC[C@@H]2CCCN2)c1 [Cpd 11] |  | 
28 |  | 1.1553 | 460 nM | 32.3 nM |  | CCc1ccc(Oc2nc(-c3cncnc3)cnc2NC[C@@H]2CCCN2)cc1 [Cpd 6] |  | 
29 | 0.4 nM |  |  |  |  | Oc1cccc(Oc2nc(-c3cncnc3)cnc2NC[C@@H]2CCCN2)c1 [Cpd 15, 3-{6-Pyrimidin-5-yl-3-[(pyrrolidin-2-(S)-ylmethyl)-amino]-pyrazin-2-yloxy}-phenol] |  | 
30 | 76.4 nM |  |  |  | 0.1065 | N#Cc1ccc(Oc2nc(-c3cncnc3)cnc2NC[C@@H]2CCCN2)cc1 [Cpd 18] |  | 
31 | 0.7 nM |  |  |  | 0.2356 | Clc1ccccc1Oc1nc(-c2cncnc2)cnc1NC[C@@H]1CCCN1 [Cpd 12, [3-(2-Chloro-phenoxy)-5-pyrimidin-5-yl-pyrazin-2-yl]-pyrrolidin-2-(S)-ylmethyl-amine] |  | 
32 | 6.4 nM | 1.0035 | 34.2 nM |  | 0.9179 | N#CCc1ccc(Oc2nc(-c3cncc(C#N)c3)cnc2NC[C@@H]2CCCN2)cc1 [Cpd 27] |  | 
33 | 411 nM |  |  |  |  | c1cn(-c2ccc(Oc3nc(-c4cncnc4)cnc3NC[C@@H]3CCCN3)cc2)cn1 [Cpd 14] |  | 
34 | 0.3 nM |  |  |  | 0.0000 | N#Cc1cncc(-c2cnc(NC[C@@H]3CCCN3)c(Oc3ccc(OC(F)F)cc3)n2)c1 [Cpd 29] |  | 
35 | 0.5 nM |  |  |  | 0.3353 | CCc1ccc(Oc2nc(-c3cncc(C#N)c3)cnc2NC[C@@H]2CCCN2)cc1 [Cpd 37] |  | 
36 | 0.2 nM |  |  |  | 0.1669 | COc1ccc(Oc2nc(-c3cncc(C#N)c3)cnc2NC[C@@H]2CCCN2)cc1 [Cpd 24] |  | 
